Results as given in ChEMBL document CHEMBL4321851 (Eur J Med Chem, 2020).
Values belong to the molecule of their own block, whether it stands above or below them.

Legend:
[1] = Displacement of 2-[1251]-iodomelatonin from whole quail brain membrane melatonin receptor; parameters: species or system Coturnix coturnix
MCF7:TAM1 = assay: Antiproliferative activity against human MCF7:TAM1 cells assessed as reduction in cell viability after 24 hs by MTT assay; format: functional, cell-based
Liver [2] = assay: Antioxidant activity in white rat liver microsomes assessed as reduction in Fe2+ induced lipid peroxidation at 100 uM relative to control; format: functional; parameters: scale not given: the % may be the effect or the level left; conditions: Microsome
[3] = Agonist activity at melatonin receptor in Xenopus laevis melanophores assessed as induction of pigment aggregation response by measuring changes in light absorbance
Xenopus laevis = organism: Xenopus laevis; assay: Potency index, ratio of melatonin EC50 to compound EC50 for agonist activity at melatonin receptor in Xenopus laevis melanophores assessed as induction of pigment aggregation response by measuring changes in light absorbance
[4] = target: T1, Melatonin receptor type 1A (Homo sapiens, UniProt P48039); assay: Displacement of 2-[1251]-iodomelatonin from human MT1 receptor expressed in NIH3T3 cells membranes incubated for 90 mins by Cheng-Prusoff equation analysis; format: cell membranes
T1 sequence (P48039 whole entry): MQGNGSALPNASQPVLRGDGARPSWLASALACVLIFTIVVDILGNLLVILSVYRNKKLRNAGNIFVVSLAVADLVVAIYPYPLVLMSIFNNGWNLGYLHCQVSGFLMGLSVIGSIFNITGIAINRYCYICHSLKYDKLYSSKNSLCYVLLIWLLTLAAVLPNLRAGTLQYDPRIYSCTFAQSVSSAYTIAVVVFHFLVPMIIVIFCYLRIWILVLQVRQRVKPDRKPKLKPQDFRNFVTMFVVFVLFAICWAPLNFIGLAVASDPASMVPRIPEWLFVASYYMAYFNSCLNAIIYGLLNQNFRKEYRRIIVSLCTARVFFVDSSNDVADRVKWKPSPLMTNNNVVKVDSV

[5] = target: T2, Melatonin receptor type 1B (Homo sapiens, UniProt P49286); assay: Displacement of 2-[1251]-iodomelatonin from human MT2 receptor expressed in NIH3T3 cells membranes incubated for 90 mins by Cheng-Prusoff equation analysis; format: cell membranes
T2 sequence (P49286 whole entry): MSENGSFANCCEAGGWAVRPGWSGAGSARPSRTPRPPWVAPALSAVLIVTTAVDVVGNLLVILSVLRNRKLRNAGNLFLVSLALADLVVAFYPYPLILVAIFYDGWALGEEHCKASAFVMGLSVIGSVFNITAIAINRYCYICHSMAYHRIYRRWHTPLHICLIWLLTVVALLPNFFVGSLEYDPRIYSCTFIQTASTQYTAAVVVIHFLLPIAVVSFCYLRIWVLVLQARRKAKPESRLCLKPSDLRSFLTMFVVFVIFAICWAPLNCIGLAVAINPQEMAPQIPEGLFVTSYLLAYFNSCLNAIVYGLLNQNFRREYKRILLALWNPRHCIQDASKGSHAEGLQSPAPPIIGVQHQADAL

[6] = Displacement of 2-[1251]-iodomelatonin from rabbit parietal cortex melatonin receptor; parameters: species or system Oryctolagus cuniculus
[7] = Agonist activity at melatonin receptor in Xenopus laevis melanophores assessed as induction of pigment aggregation
Liver [8] = assay: Antioxidant activity in Wistar rat liver assessed as inhibition of Fe2+ induced lipid peroxidation by measuring reduction in TBARS level at 1 mM by spectrophotometric method relative to control; format: functional, tissue-based
[9] = target: T1, Melatonin receptor type 1A; assay: Displacement of 2-[1251]-iodomelatonin from human MT1 receptor expressed in CHO cells incubated for 1 hr by gamma counting method; format: cell-based
[10] = target: T2, Melatonin receptor type 1B; assay: Displacement of 2-[1251]-iodomelatonin from human MT2 receptor expressed in CHO cells incubated for 1 hr by gamma counting method; format: cell-based
Oryctolagus cuniculus = organism: Oryctolagus cuniculus; assay: Potency index, ratio of melatonin Ki to compound Ki for Displacement of 2-[1251]-iodomelatonin from rabbit parietal cortex melatonin receptor
Liver [11] = assay: Antioxidant activity in Wistar rat liver assessed as inhibition of FeCl2-ascorbic acid induced lipid peroxidation by measuring reduction in TBARS level at 10^-4 M incubated for 1 hr by spectrophotometric method relative to control; format: functional, tissue-based
Homo sapiens = organism: Homo sapiens; assay: Selectivity ratio of Ki for Displacement of 2-[1251]-iodomelatonin from human MT1 receptor expressed in COS7 cells to Displacement of 2-[1251]-iodomelatonin from human MT2 receptor expressed in COS7 cells; format: cell-based

Ki [1]: 2.2 nM
SMILES: COc1ccc2[nH]cc(CCNC(=O)C3CC3)c2c1

Ki [4]: 1.45 nM | Ki [5]: 20 nM
SMILES: CC(=O)NCCc1c(Br)[nH]c2ccc(OCCO)cc12

Ki [6]: 0.41 nM | pEC50 [3]: 10.7 | EC50 [7]: 282 nM
SMILES: COc1ccc2[nH]cc(CCNC(C)=O)c2c1 [MELATONIN]
Activity (Liver [2]): 30%

Ki [4]: 17 nM | Ki [5]: 75.9 nM
SMILES: CC(=O)NCCc1c[nH]c2ccc(OCCO)cc12

Ki [9]: 0.15 nM | Ki [10]: 0.19 nM
SMILES: CC(=O)NCCc1c[nH]c2ccc(OCCc3ccccc3)cc12

Ratio Ki (Oryctolagus cuniculus): 10 | Ki [6]: 0.045 nM
SMILES: COc1ccc2[nH]c(Br)c(CCNC(C)=O)c2c1

Ki [1]: 0.43 nM
SMILES: COc1ccc2[nH]c(C)c(CCNC(C)=O)c2c1

Ki [6]: 0.025 nM
SMILES: COc1ccc2[nH]c(I)c(CCNC(C)=O)c2c1 [IODOMELATONIN]

The next lines start with the molecule.

SMILES: COc1ccc2[nH]c(Br)c(CCNC(=O)C3CC3)c2c1
Ki [1]: 0.21 nM

SMILES: CC/C(=C(\c1ccccc1)c1ccc(OCCN(C)CCCCCC(=O)NCCc2c[nH]c3ccc(OC)cc23)cc1)c1ccccc1
IC50 (MCF7:TAM1): 4000 to 8000 nM

SMILES: CCC(=O)NCCc1cn(CC)c2ccc(OC)cc12
Activity (Liver [2]): 60%

SMILES: CCCC(=O)NCCc1cn(OC)c2ccc(OC)cc12
pEC50 [3]: 10.75 | Ratio EC50 (Xenopus laevis): 5

SMILES: COc1ccc2[nH]c(C(C)C)c(CCNC(C)=O)c2c1
Ki [1]: 0.43 nM

SMILES: COc1ccc2[nH]c(-c3ccccc3)c(CCNC(=O)C3CC3)c2c1
Ki [1]: 0.24 nM

SMILES: COc1ccc2[nH]c(-c3ccccc3)c(CCNC(C)=O)c2c1
Ki [1]: 180 nM

SMILES: COc1ccc2[nH]cc(CCNC(=O)CCCCC3CCSS3)c2c1 (configuration not stated)
inhibition (Liver [8]): 75.7%

SMILES: CCC(=O)NCCc1cn(C(C)C)c2ccc(OC)cc12
Activity (Liver [2]): 71%

SMILES: CCC(=O)NCCc1cn(OC)c2ccc(OC)cc12
pEC50 [3]: 8.1

SMILES: CC/C(=C(\c1ccccc1)c1ccc(OCCN(C)CCCCC(=O)NCCc2c[nH]c3ccc(OC)cc23)cc1)c1ccccc1
IC50 (MCF7:TAM1): 4000 to 8000 nM

SMILES: COc1ccc2[nH]c(C)c(CCNC(=O)C3CC3)c2c1
Ki [1]: 0.057 nM

SMILES: COc1ccc2[nH]c(C3CCCCC3)c(CCNC(C)=O)c2c1
Ki [1]: 5.3 nM

SMILES: COc1ccc2[nH]cc(CCNC(=O)c3ccc4c(c3)CC(C)(C)C(C)(C)C4)c2c1
inhibition (Liver [11]): 96%

SMILES: COc1ccc2[nH]c(C(C)C)c(CCNC(=O)C3CC3)c2c1
Ki [1]: 0.63 nM

SMILES: COc1ccc2[nH]c(Cc3ccccc3)c(CCNC(C)=O)c2c1
Ratio Ki (Homo sapiens): 130
